In one experiment the test system is Klebsiella pneumoniae. The conditions noted are these: ATCC 700603, Concentration 32.0 ug.mL-1.
Another experiment relates to Staphylococcus aureus. Nature of the experiment: Antibacterial activity against Staphylococcus aureus MRSA ATCC 43300 (CO-ADD:GP_020); MIC in CAMBH media, using NBS plates, by OD(600). The conditions noted are these: Concentration 32.0 ug.mL-1.
For the next experiment, the system named is Pseudomonas aeruginosa. The settings on record: ATCC 27853, Concentration 32.0 ug.mL-1.
Another experiment deals with Acinetobacter baumannii. Nature of the experiment: Antibacterial activity against Acinetobacter baumannii ATCC 19606 (CO-ADD:GN_034); MIC in CAMBH media using NBS plates, by OD600. The settings on record: Concentration 32.0 ug.mL-1.
The test system of the next experiment is Escherichia coli. Nature of the experiment: Antibacterial activity against Escherichia coli ATCC 25922 (CO-ADD:GN_001); MIC in CAMBH media using NBS plates, by OD(600). The conditions noted are these: Concentration 32.0 ug.mL-1.
Another experiment deals with HEK293. Nature of the experiment: cells. It counts as functional, Homo sapiens, ATCC CRL1573. The settings on record: ASSAY_TEST Inhibition of Cell Viability; detection method Resazurin; Fluorescence (ex560/em590); MEDIA DMEM with 10% FBS; plate type 384well; TC; CORNING #3712; time 18 hr.

Description for Klebsiella pneumoniae: Antibacterial activity against Klebsiella pneumoniae MDR ATCC 70063 (CO-ADD:GN_003); MIC in CAMBH media using NBS plates, by OD(600)
Description for Pseudomonas aeruginosa: Antibacterial activity against Pseudomonas aeruginosa ATCC 27853 (CO-ADD:GN_042); MIC in CAMBH media using NBS plates, by OD(600)

`Nc1c[nH]c(C(=O)NCc2ccc(F)cc2)n1`: the inhibition entry in the experiment on Klebsiella pneumoniae, in the experiment with Staphylococcus aureus, with Pseudomonas aeruginosa, in the experiment on Acinetobacter baumannii and in the experiment on Escherichia coli was “Average; N=2” throughout.
As to `CN(CCO)C(=O)c1ncc([N+](=O)[O-])[nH]1`, the inhibition result in the experiment with Klebsiella pneumoniae, with Staphylococcus aureus, in the experiment with Pseudomonas aeruginosa, with Acinetobacter baumannii and in the experiment with Escherichia coli was “Average; N=2” in each case.
In the experiment with HEK293, `O=c1[nH]c(-c2ccc(OC(F)(F)F)cc2)cn2cc([N+](=O)[O-])nc12` had a CC50 of more than 100.
For `[N-]=[N+]=NCCOc1nc(-c2ccccc2)cn2cc([N+](=O)[O-])nc12`, the inhibition result with Klebsiella pneumoniae, in the experiment with Staphylococcus aureus, in the experiment on Pseudomonas aeruginosa, in the experiment with Acinetobacter baumannii and with Escherichia coli was “Average; N=2” each time.
`O=C(NC1CCCCC1)c1ncc([N+](=O)[O-])[nH]1`: the inhibition result with Klebsiella pneumoniae, in the experiment on Staphylococcus aureus, in the experiment with Pseudomonas aeruginosa, in the experiment on Acinetobacter baumannii and with Escherichia coli was “Average; N=2” each time.
Take `CN(C)C(=O)c1ncc([N+](=O)[O-])[nH]1`: the inhibition entry in the experiment with Klebsiella pneumoniae, in the experiment with Staphylococcus aureus, with Pseudomonas aeruginosa, with Acinetobacter baumannii and in the experiment with Escherichia coli was “Average; N=2” throughout.
For `O=C(NCCO)c1ncc([N+](=O)[O-])[nH]1`, the inhibition entry in the experiment with Klebsiella pneumoniae, in the experiment on Staphylococcus aureus, with Pseudomonas aeruginosa, with Acinetobacter baumannii and with Escherichia coli was “Average; N=2” each time.
Turning to `O=C(c1ncc([N+](=O)[O-])[nH]1)N1CCOCC1`, the inhibition result in the experiment on Klebsiella pneumoniae, in the experiment on Staphylococcus aureus, with Pseudomonas aeruginosa, in the experiment on Acinetobacter baumannii and with Escherichia coli was “Average; N=2” throughout.
In the experiment with HEK293, `CC(=O)OCCOc1nc(C)cn2cc([N+](=O)[O-])nc12` gave a CC50 of more than 100.
In the experiment with HEK293, `Cc1[nH]c(=O)c2nc([N+](=O)[O-])cn2c1C` displayed a CC50 of more than 100.
In the case of `O=C(c1ncc([N+](=O)[O-])[nH]1)N1CCCC1`, the inhibition result in the experiment with Klebsiella pneumoniae, in the experiment with Staphylococcus aureus, with Pseudomonas aeruginosa, in the experiment with Acinetobacter baumannii and in the experiment with Escherichia coli was “Average; N=2” in each case.
`Cc1nc(OCc2ccc(OC(F)(F)F)cc2)c2nc([N+](=O)[O-])cn2c1C` displayed a CC50 in the experiment with HEK293 of more than 100.
As to `NC(=O)c1nc([N+](=O)[O-])cn1Cc1ccc(F)cc1`, the inhibition entry in the experiment with Klebsiella pneumoniae, in the experiment on Staphylococcus aureus, with Pseudomonas aeruginosa, in the experiment with Acinetobacter baumannii and in the experiment with Escherichia coli was “Average; N=2” in each case.
Regarding `O=C(NO)c1nc([N+](=O)[O-])cn1Cc1ccc(OC(F)(F)F)cc1`, the CC50 in the experiment with HEK293 is 36.
`Cc1ccc(CCn2cc([N+](=O)[O-])nc2C(N)=O)cc1`: the inhibition entry with Klebsiella pneumoniae, with Staphylococcus aureus, in the experiment with Pseudomonas aeruginosa, in the experiment on Acinetobacter baumannii and in the experiment on Escherichia coli was “Average; N=2” throughout.
For `CC(=O)OCCn1cc([N+](=O)[O-])nc1C(N)=O`, the inhibition result in the experiment with Klebsiella pneumoniae, in the experiment with Staphylococcus aureus, in the experiment on Pseudomonas aeruginosa, in the experiment on Acinetobacter baumannii and in the experiment on Escherichia coli was “Average; N=2” each time.
In the experiment on HEK293, `NNC(=O)c1nc([N+](=O)[O-])cn1Cc1ccc(OC(F)(F)F)cc1` yielded a CC50 of more than 100.
With `O=C(NC1CC1)c1ncc([N+](=O)[O-])[nH]1`, the inhibition entry with Klebsiella pneumoniae, with Staphylococcus aureus, with Pseudomonas aeruginosa, in the experiment with Acinetobacter baumannii and in the experiment on Escherichia coli was “Average; N=2” each time.
In the experiment with HEK293, `CCOC(=O)c1nc([N+](=O)[O-])c[nH]1` had a CC50 of more than 100.
Still for that read-out and setting: under `O=C(O)C(F)(F)F.O=c1nc(N2CCN(CC3CCCCC3)CC2)sc2c([N+](=O)[O-])cc(C(F)(F)F)cc12` stands more than 50.
Regarding `O=C(NCc1ccccn1)c1ncc([N+](=O)[O-])[nH]1`, the inhibition entry in the experiment on Klebsiella pneumoniae, in the experiment on Staphylococcus aureus, in the experiment on Pseudomonas aeruginosa, in the experiment with Acinetobacter baumannii and in the experiment with Escherichia coli was “Average; N=2” throughout.
In turn, `C[C@H]1COC2(CCN(c3nc(=O)c4cc(C(F)(F)F)cc([N+](=O)[O-])c4s3)CC2)O1` [BTZ-043] showed a CC50 with HEK293 of more than 100.
Consider `NC(=O)c1nc([N+](=O)[O-])cn1CCc1ccc(OC(F)(F)F)cc1`, for which the inhibition result in the experiment with Klebsiella pneumoniae, in the experiment on Staphylococcus aureus, in the experiment on Pseudomonas aeruginosa, in the experiment on Acinetobacter baumannii and in the experiment with Escherichia coli was “Average; N=2” throughout.
Regarding `NC(=O)c1nc([N+](=O)[O-])cn1Cc1ccc(C(F)(F)F)cc1`, the inhibition entry with Klebsiella pneumoniae, with Staphylococcus aureus, in the experiment on Pseudomonas aeruginosa, with Acinetobacter baumannii and in the experiment on Escherichia coli was “Average; N=2” in each case.
In the case of `CN(CCOC(=O)c1ncc([N+](=O)[O-])[nH]1)C(=O)c1ncc([N+](=O)[O-])[nH]1`, the inhibition result with Klebsiella pneumoniae, in the experiment on Staphylococcus aureus, with Pseudomonas aeruginosa, in the experiment on Acinetobacter baumannii and in the experiment on Escherichia coli was “Average; N=2” in each case.
`CS(=O)(=O)c1ccc(CNC(=O)c2ncc([N+](=O)[O-])[nH]2)cc1`: the inhibition entry in the experiment on Klebsiella pneumoniae, in the experiment on Staphylococcus aureus, in the experiment with Pseudomonas aeruginosa, in the experiment with Acinetobacter baumannii and with Escherichia coli was “Average; N=2” each time.
With `O=C(NCc1ccc(OC(F)(F)F)cc1)c1ncc([N+](=O)[O-])[nH]1`, the inhibition entry in the experiment on Klebsiella pneumoniae, with Staphylococcus aureus, with Pseudomonas aeruginosa, in the experiment with Acinetobacter baumannii and in the experiment on Escherichia coli was “Average; N=2” throughout.
`CC(=O)OCCn1c(-c2ccccc2)cn2cc([N+](=O)[O-])nc2c1=O`: the inhibition result in the experiment with Klebsiella pneumoniae, in the experiment with Staphylococcus aureus, with Pseudomonas aeruginosa, in the experiment on Acinetobacter baumannii and with Escherichia coli was “Average; N=2” each time.
Regarding `NC(=O)c1ncc([N+](=O)[O-])[nH]1`, the inhibition entry in the experiment on Klebsiella pneumoniae, in the experiment on Staphylococcus aureus, with Pseudomonas aeruginosa, with Acinetobacter baumannii and in the experiment on Escherichia coli was “Average; N=2” throughout.
For `O=C(NCc1ccccc1)c1nc([N+](=O)[O-])c[nH]1`, the inhibition entry in the experiment on Klebsiella pneumoniae, in the experiment with Staphylococcus aureus, in the experiment on Pseudomonas aeruginosa, with Acinetobacter baumannii and with Escherichia coli was “Average; N=2” in each case.
For the molecule `CNC(=O)c1ncc([N+](=O)[O-])[nH]1`, the inhibition entry in the experiment on Klebsiella pneumoniae, in the experiment on Staphylococcus aureus, with Pseudomonas aeruginosa, in the experiment on Acinetobacter baumannii and in the experiment with Escherichia coli was “Average; N=2” in each case.
Take `NC(=O)c1nc([N+](=O)[O-])cn1Cc1cccc(OC(F)(F)F)c1`: the inhibition entry with Klebsiella pneumoniae, with Staphylococcus aureus, in the experiment with Pseudomonas aeruginosa, with Acinetobacter baumannii and in the experiment with Escherichia coli was “Average; N=2” in each case.
On to `CC(NC(=O)c1ncc([N+](=O)[O-])[nH]1)c1ccc(F)cc1` (centres undefined), for which the inhibition entry with Klebsiella pneumoniae, in the experiment on Staphylococcus aureus, with Pseudomonas aeruginosa, with Acinetobacter baumannii and with Escherichia coli was “Average; N=2” in each case.
For the molecule `NC(=O)c1nc([N+](=O)[O-])cn1Cc1ccccn1`, the inhibition entry in the experiment on Klebsiella pneumoniae, in the experiment with Staphylococcus aureus, in the experiment with Pseudomonas aeruginosa, in the experiment on Acinetobacter baumannii and with Escherichia coli was “Average; N=2” in each case.
Turning to `NC(=O)c1nc([N+](=O)[O-])cn1CC1CCCCC1`, the inhibition result in the experiment on Klebsiella pneumoniae, with Staphylococcus aureus, with Pseudomonas aeruginosa, with Acinetobacter baumannii and in the experiment on Escherichia coli was “Average; N=2” throughout.

Source of the values: ChEMBL document CHEMBL4513134, “CO-ADD screening of University of Queensland (Australia) compounds” (2021).
